Laboratory results from patent US20250195502A1, “APPLICATION OF TETRACYCLIC COMPOUND IN TREATMENT OF TUMORS” (SHANGHAI SHIJIANG BIOTECHNOLOGY CO., LTD, priority 2022, published 2025).

system: SF126 (human glioblastoma multiforme cell); assay: Cell viability assay (Promega CellTiter-Glo), inhibitory effect on SF126; type: cell-based; settings: 72 h, SF-126, 3 days of culture, Table 3, read-out: inhibitory effect on SF-126 (IC50)
Method: (§1) The inhibitory effect of the compounds prepared in the Examples of the present invention on various tumor cell lines was detected using cell viability assay reagent.
(§2) Cell viability was detected using the Promega CellTiter-Glo kit, cell viability was determined by directly measuring intracellular ATP content. In the experiment, the ICso value of the compounds prepared in the Examples of the present invention on various tumor cell lines was detected.
(§3) Each tumor cell was cultured in relevant medium. After cell passage, the gradient diluted compounds prepared in the Examples of the present invention was added. After 3 days of culture, the relevant IC50 (50% inhibiting concentration) was measured. The name, source and culture conditions of each tumor cell line were as follows:
Cell line SF126 (JCRB, No. IFO50286) was cultured in 10% fetal bovine serum-containing EMEM medium (+P/S).
(§4) The inhibitory effect of the compounds prepared in the Examples of the present invention on various brain tumor cell lines was detected using cell viability assay reagent.
(§5) Cell viability was detected using the Promega CellTiter-Glo kit, cell viability was determined by directly measuring intracellular ATP content. In the experiment, the IC50 value of the compounds prepared in the Examples of the present invention on various brain tumor cell lines was detected.

Row | Compound | IC50 [nM]
1 | CCCCCCc1c2c(OC)c(OC)ccc2cc2[n+]1CCc1cc3c(cc1-2)OCO3 [compound AB31767] | 3700
2 | COc1ccc2cc3[n+](cc2c1OC(=O)CC12CC4CC(CC(C4)C1)C2)CCc1cc2c(cc1-3)OCO2 [compound AB31771] | 15700

same assay, conditions: SF-126, 72 h, SF126, 3 days of culture, Table 4, read-out: inhibitory effect on brain cell line SF126 (IC50)

Row | Compound | IC50 [nM]
3 | CCCCCCc1c2c(OC)c(OC)ccc2cc2[n+]1CCc1cc3c(cc1-2)OCO3 [compound AB31767] | 3700
4 | COc1ccc2cc3[n+](cc2c1OC(=O)CC12CC4CC(CC(C4)C1)C2)CCc1cc2c(cc1-3)OCO2 [compound AB31771] | 15700

system: NB-1 (brain neuroblastoma cell); assay: Cell viability assay (Promega CellTiter-Glo), inhibitory effect on NB-1; type: cell-based; settings: Homo sapiens, 72 h, 3 days of culture, read-out: inhibitory effect on brain cell line NB-1 (IC50)
Method: as §4, §5, §3
Cell line NB-1 (ATCC, No. HTB-131) was cultured in 10% fetal bovine serum-containing Leibovitz's L-15 medium (+P/S).

Row | Compound | IC50 [nM]
5 | CCCCCCc1c2c(OC)c(OC)ccc2cc2[n+]1CCc1cc3c(cc1-2)OCO3 [compound AB31767] | 120
6 | COc1ccc2cc3[n+](cc2c1OC(=O)CC12CC4CC(CC(C4)C1)C2)CCc1cc2c(cc1-3)OCO2 [compound AB31771] | 1040

system: NCI-H82 (human small cell lung cancer cell); assay: Cell viability assay (Promega CellTiter-Glo), inhibitory effect on NCI-H82; type: cell-based; settings: 72 h, 3 days of culture
Method: as §1, §2, §3
Cell line NCI-H82 (ATCC, No. HTB-175) was cultured in 10% fetal bovine serum-containing RPMI1640 medium (+P/S).

Row | Compound | IC50 [nM]
7 | CCCCCCc1c2c(OC)c(OC)ccc2cc2[n+]1CCc1cc3c(cc1-2)OCO3 [compound AB31767] | 260
8 | COc1ccc2cc3[n+](cc2c1OC(=O)CC12CC4CC(CC(C4)C1)C2)CCc1cc2c(cc1-3)OCO2 [compound AB31771] | 1870

system: Kelly (brain neuroblastoma cell); assay: Cell viability assay (Promega CellTiter-Glo), inhibitory effect on Kelly; type: cell-based; settings: Homo sapiens, 72 h, 3 days of culture, read-out: inhibitory effect on brain cell line Kelly (IC50)
Method: as §4, §5, §3
Cell line Kelly (ECACC, No. 92110411) was cultured in 10% fetal bovine serum and 2 mM glutamine-containing RPMI1640 medium.

Row | Compound | IC50 [nM]
9 | CCCCCCc1c2c(OC)c(OC)ccc2cc2[n+]1CCc1cc3c(cc1-2)OCO3 [compound AB31767] | 300
10 | COc1ccc2cc3[n+](cc2c1OC(=O)CC12CC4CC(CC(C4)C1)C2)CCc1cc2c(cc1-3)OCO2 [compound AB31771] | 2210

system: G-401 (human renal carcinoma Wilms cell); assay: Cell viability assay (Promega CellTiter-Glo), inhibitory effect on G-401; type: cell-based; settings: 72 h, 3 days of culture
Method: as §1, §2, §3
Cell line G-401 (ATCC, No. CRL-1441) was cultured in 10% fetal bovine serum-containing McCoy's 5a medium (+P/S).

Row | Compound | IC50 [nM]
11 | CCCCCCc1c2c(OC)c(OC)ccc2cc2[n+]1CCc1cc3c(cc1-2)OCO3 [compound AB31767] | 180
12 | COc1ccc2cc3[n+](cc2c1OC(=O)CC12CC4CC(CC(C4)C1)C2)CCc1cc2c(cc1-3)OCO2 [compound AB31771] | 2040

system: sh-DNMT1 NCI-H82 cell (DNMT1 knocked down NCI-H82); assay: Cell viability assay (Promega CellTiter-Glo), inhibitory effect on sh-DNMT1 NCI-H82 cell; type: cell-based; settings: Homo sapiens, NCI-H82 with DNMT1 knocked down by shRNA
Method: (§6) The role of expression level of NNMT gene and DNMT1 in the sensitivity of NCI-H82 cell to the compounds prepared in the Examples of the present invention was determined
(§7) The expression of NNMT protein in NCI-H82 cell was overexpressed by inserting the NNMT gene into NCI-H82 cell using a viral vector, and the NNMT protein-overexpressing NCI-H82 cell (ov-NNMT NCI-H82 cell) was obtained. The expression of DNMT1 in NCI-H82 cell was knocked down transfecting (the by shRNA nucleotide sequence of shRNA was […] TTTTTG (SEQ ID No: 2)) using a viral vector, and the NCI-H82 cell with low expression of DNMT1 protein (sh-DNMT1 NCI-H82 cell) was obtained. The control NCI-H82 cell (Con-NCI-H82 cell) was obtained by transfecting NCI-H82 cell with empty virus vector without carrying NNMT gene and shRNA. The expressing content of NNMT protein and DNMT1 protein in the Con-NCI-H82 cell, the expressing content of NNMT protein in the ov-NNMT NCI-H82 cell, and the expressing content of DNMT1 protein in the sh-DNMT1 NCI-H82 cell were detected using Western Blot assay (as shown in FIG. 15 and FIG. 16), it could be seen from FIG. 15 and FIG. 16 that the NNMT protein was overexpressed in the ov-NNMT NCI-H82 cell and the expression of DNMT1 protein was knocked down (i.e, low expression) in the sh-DNMT1 NCI-H82 cell compared with the expression level of NNMT protein and DNMT protein in the Con-NCI-H82 cell.

Row | Compound | IC50 [nM]
13 | CCCCCCc1c2c(OC)c(OC)ccc2cc2[n+]1CCc1cc3c(cc1-2)OCO3 [compound AB31767] | 980
14 | COc1ccc2cc3[n+](cc2c1OC(=O)CC12CC4CC(CC(C4)C1)C2)CCc1cc2c(cc1-3)OCO2 [compound AB31771] | 5810

system: GB-1 (human brain glioblastoma cell); assay: Cell viability assay (Promega CellTiter-Glo), inhibitory effect on GB-1; type: cell-based; settings: 72 h, 3 days of culture, Table 3, read-out: inhibitory effect on GB-1 (IC50)
Method: as §1, §2, §3
Cell line GB-1 (JCRB, No. IFO50489) was cultured in 10% fetal bovine serum-containing DMEM medium (+P/S).
as §4, §5

Row | Compound | IC50 [nM]
15 | CCCCCCc1c2c(OC)c(OC)ccc2cc2[n+]1CCc1cc3c(cc1-2)OCO3 [compound AB31767] | 3610
16 | COc1ccc2cc3[n+](cc2c1OC(=O)CC12CC4CC(CC(C4)C1)C2)CCc1cc2c(cc1-3)OCO2 [compound AB31771] | 11200

same assay, conditions: 72 h, 3 days of culture, Table 4, read-out: inhibitory effect on brain cell line GB-1 (IC50)

Row | Compound | IC50 [nM]
17 | CCCCCCc1c2c(OC)c(OC)ccc2cc2[n+]1CCc1cc3c(cc1-2)OCO3 [compound AB31767] | 3610
18 | COc1ccc2cc3[n+](cc2c1OC(=O)CC12CC4CC(CC(C4)C1)C2)CCc1cc2c(cc1-3)OCO2 [compound AB31771] | 11200

system: D341 Med (cerebellar medulloblastoma cell); assay: Cell viability assay (Promega CellTiter-Glo), inhibitory effect on D341 Med; type: cell-based; settings: Homo sapiens, 72 h, 3 days of culture, read-out: inhibitory effect on brain cell line D341 Med (IC50)
Method: as §4, §5, §3
Cell line D341 Med (ATCC, No. HTB-187) was cultured in 20% fetal bovine serum-containing EMEM medium (+P/S).

Row | Compound | IC50 [nM]
19 | CCCCCCc1c2c(OC)c(OC)ccc2cc2[n+]1CCc1cc3c(cc1-2)OCO3 [compound AB31767] | 570
20 | COc1ccc2cc3[n+](cc2c1OC(=O)CC12CC4CC(CC(C4)C1)C2)CCc1cc2c(cc1-3)OCO2 [compound AB31771] | 1660

system: 786-O (clear cell renal cell adenocarcinoma cell); assay: Cell viability assay (Promega CellTiter-Glo), inhibitory effect on 786-O; type: cell-based; settings: Homo sapiens, 786-0, 72 h, 3 days of culture
Method: as §1, §2, §3
Cell line 786-0 (ATCC, No. CRL-1932) was cultured in 10% fetal bovine serum-containing RPMI1640 medium (+P/S).

Row | Compound | IC50 [nM]
21 | CCCCCCc1c2c(OC)c(OC)ccc2cc2[n+]1CCc1cc3c(cc1-2)OCO3 [compound AB31767] | 2100
22 | COc1ccc2cc3[n+](cc2c1OC(=O)CC12CC4CC(CC(C4)C1)C2)CCc1cc2c(cc1-3)OCO2 [compound AB31771] | 20800

system: MDA-MB-453 (breast cancer cell); assay: Cell viability assay (Promega CellTiter-Glo), inhibitory effect on MDA-MB-453; type: cell-based; settings: Homo sapiens, 72 h, 3 days of culture
Method: as §1, §2, §3
Cell line MDA-MB-453 (ATCC, No. HTB-131) was cultured in 10% fetal bovine serum-containing Leibovitz's L-15 medium (+P/S).

Row | Compound | IC50 [nM]
23 | CCCCCCc1c2c(OC)c(OC)ccc2cc2[n+]1CCc1cc3c(cc1-2)OCO3 [compound AB31767] | 270
24 | COc1ccc2cc3[n+](cc2c1OC(=O)CC12CC4CC(CC(C4)C1)C2)CCc1cc2c(cc1-3)OCO2 [compound AB31771] | 350

system: Con-NCI-H82 cell (NCI-H82 transfected with empty virus vector); assay: Cell viability assay (Promega CellTiter-Glo), inhibitory effect on Con-NCI-H82 cell; type: cell-based; settings: Homo sapiens; NCI-H82 transfected with empty virus vector (control); CellTiter-Glo; read-out: inhibitory effect on Con-NCI-H82 (IC50)
Method: as §6, §7

Row | Compound | IC50 [nM]
25 | CCCCCCc1c2c(OC)c(OC)ccc2cc2[n+]1CCc1cc3c(cc1-2)OCO3 [compound AB31767] | 260
26 | COc1ccc2cc3[n+](cc2c1OC(=O)CC12CC4CC(CC(C4)C1)C2)CCc1cc2c(cc1-3)OCO2 [compound AB31771] | 1870

system: ov-NNMT NCI-H82 cell (NNMT protein-overexpressing NCI-H82); assay: Cell viability assay (Promega CellTiter-Glo), inhibitory effect on ov-NNMT NCI-H82 cell; type: cell-based; settings: Homo sapiens
Method: as §6, §7

Row | Compound | IC50 [nM]
27 | CCCCCCc1c2c(OC)c(OC)ccc2cc2[n+]1CCc1cc3c(cc1-2)OCO3 [compound AB31767] | 650
28 | COc1ccc2cc3[n+](cc2c1OC(=O)CC12CC4CC(CC(C4)C1)C2)CCc1cc2c(cc1-3)OCO2 [compound AB31771] | 3940

system: CFPAC-1 (human pancreatic cancer cell); assay: Cell viability assay (Promega CellTiter-Glo), inhibitory effect on CFPAC-1; type: cell-based; settings: 72 h, 3 days of culture
Method: as §1, §2, §3
Cell line CFPAC-1 (ATCC, No. CRL-1918) was cultured in 10% fetal bovine serum-containing IMDM medium (+P/S).

Row | Compound | IC50 [nM]
29 | CCCCCCc1c2c(OC)c(OC)ccc2cc2[n+]1CCc1cc3c(cc1-2)OCO3 [compound AB31767] | 4310
30 | COc1ccc2cc3[n+](cc2c1OC(=O)CC12CC4CC(CC(C4)C1)C2)CCc1cc2c(cc1-3)OCO2 [compound AB31771] | 17100

system: SW48 (human colon adenocarcinoma cell); assay: Cell viability assay (Promega CellTiter-Glo), inhibitory effect on SW48; type: cell-based; settings: 72 h, 3 days of culture
Method: as §1, §2, §3
Cell line SW48 (ATCC, No. CCL-231) was cultured in 10% fetal bovine serum-containing Leibovitz's L-15 medium (+P/S).

Row | Compound | IC50 [nM]
31 | CCCCCCc1c2c(OC)c(OC)ccc2cc2[n+]1CCc1cc3c(cc1-2)OCO3 [compound AB31767] | 370
32 | COc1ccc2cc3[n+](cc2c1OC(=O)CC12CC4CC(CC(C4)C1)C2)CCc1cc2c(cc1-3)OCO2 [compound AB31771] | 1370
